Legend:
Type in all cases: in vivo
[1] = system: ryegrass, Italian (Italian ryegrass, Lolium multiflorum); assay: Test A postemergence; conditions: Lolium multiflorum, post-emergence, 240 h, Postemergence
Outline: (§1)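 Each rating is a visual injury score from 0 to 100 given about 10 d after treatment, judged against untreated controls kept alongside in the greenhouse. In loam soil–sand blend, seeds got a preemergence directed soil spray, while postemergence plants were 2 to 10 cm tall at spraying.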

[2] = system: ragweed (common ragweed, Ambrosia elatior); assay: Test A postemergence; conditions: Ambrosia artemisiifolia, post-emergence, 240 h, Postemergence
Outline: as §1

corn (Zea mays) = assay: Test A postemergence; conditions: Zea mays, post-emergence, 240 h, Postemergence
Outline: as §1

Kochia (Kochia scoparia) [3] = assay: Test A postemergence; conditions: Bassia scoparia, post-emergence, 240 h, Postemergence
Outline: as §1

[4] = system: barnyardgrass (Echinochloa crus-galli); assay: Test A postemergence; conditions: Echinochloa crus-galli, post-emergence, 240 h, Postemergence
Outline: as §1

[5] = system: giant foxtail (Setaria faberii); assay: Test A postemergence; conditions: Setaria faberi, post-emergence, 240 h, Postemergence
Outline: as §1

[6] = system: wheat (Triticum aestivum); assay: Test A postemergence; conditions: Triticum aestivum, post-emergence, 240 h, Postemergence
Outline: as §1

[7] = system: Galium (catchweed bedstraw, Galium aparine); assay: Test A postemergence; conditions: Galium, post-emergence, 240 h, Postemergence
Outline: as §1

[8] = system: pigweed (Amaranthus retroflexus); assay: Test A postemergence; conditions: Amaranthus retroflexus, post-emergence, 240 h, Postemergence
Outline: as §1

[9] = system: ryegrass, Italian (Italian ryegrass, Lolium multiflorum); assay: Test A preemergence; conditions: Lolium multiflorum, pre-emergence, 240 h, Preemergence, 125 g ai/ha; 0 to 100 scale (0 no effect, 100 complete control); read-out: Plant response rating, Ryegrass, Italian
Outline: as §1

[10] = system: ragweed (common ragweed, Ambrosia elatior); assay: Test A preemergence; conditions: Ambrosia artemisiifolia, pre-emergence, 240 h
Outline: as §1

Kochia (Kochia scoparia) [11] = assay: Test A preemergence; conditions: Bassia scoparia, pre-emergence, 240 h
Outline: as §1

[12] = system: barnyardgrass (Echinochloa crus-galli); assay: Test A preemergence; conditions: Echinochloa crus-galli, pre-emergence, 240 h
Outline: as §1

[13] = system: giant foxtail (Setaria faberii); assay: Test A preemergence; conditions: Setaria faberi, pre-emergence, 240 h
Outline: as §1

[14] = system: pigweed (Amaranthus retroflexus); assay: Test A preemergence; conditions: Amaranthus retroflexus, pre-emergence, 240 h

`CN1C[C@H](c2ccc3c(c2)CCO3)[C@@H](C(=O)Nc2ccc(F)c(F)c2F)C1=O` [Compound 1323] showed a pest or weed control at 125 g/ha ([1]; 125 g ai/ha, visual rating about 10 d after treatment, read-out: Ryegrass, Italian plant response rating (0 to 100 scale)) of 40%, a pest or weed control at 500 g/ha ([1]; 500 g ai/ha, visual injury, 0 to 100 scale (0 no effect, 100 complete control), approx. 10 d, read-out: Plant response rating, Ryegrass, Italian) of 70% and a pest or weed control at 125 g/ha ([2]; 125 g ai/ha, visual rating about 10 d after treatment, read-out: Ragweed plant response rating (0 to 100 scale)) of 0%. For the same compound, the pest or weed control at 500 g/ha ([2]; 500 g ai/ha, visual injury, 0 to 100 scale (0 no effect, 100 complete control), approx. 10 d, read-out: Plant response rating, Ragweed) was 50%, the plant injury at 125 g/ha (corn (Zea mays); 125 g ai/ha, visual rating about 10 d after treatment, read-out: Corn plant response rating (0 to 100 scale)) was 50% and the Corn plant response rating (crop injury, 0 = no effect, 100 = complete kill) at 500 g/ha (corn (Zea mays); 500 g ai/ha, visual injury, 0 to 100 scale (0 no effect, 100 complete control), approx. 10 d) was 70%. For the same compound, the pest or weed control at 125 g/ha (Kochia (Kochia scoparia) [3]; 125 g ai/ha, visual rating about 10 d after treatment, read-out: Kochia plant response rating (0 to 100 scale)) was 0%, the pest or weed control at 500 g/ha (Kochia (Kochia scoparia) [3]; 500 g ai/ha, visual injury, 0 to 100 scale (0 no effect, 100 complete control), approx. 10 d, read-out: Plant response rating, Kochia) was 70% and the pest or weed control at 125 g/ha ([4]; 125 g ai/ha, visual rating about 10 d after treatment, read-out: Barnyardgrass plant response rating (0 to 100 scale, 0 no effect, 100 complete control)) was 90%. It also gave a pest or weed control at 500 g/ha ([4]; 500 g ai/ha, visual injury, 0 to 100 scale (0 no effect, 100 complete control), approx. 10 d, read-out: Plant response rating, Barnyardgrass) of 90%, a pest or weed control at 125 g/ha ([5]; 125 g ai/ha, visual rating about 10 d after treatment, read-out: Foxtail, Giant plant response rating (0 to 100 scale)) of 90% and a pest or weed control at 500 g/ha ([5]; 500 g ai/ha, visual injury, 0 to 100 scale (0 no effect, 100 complete control), approx. 10 d, read-out: Plant response rating, Foxtail, Giant) of 90%. For the same compound, the plant injury at 125 g/ha ([6]; 125 g ai/ha, visual rating about 10 d after treatment, read-out: Wheat plant response rating (0 to 100 scale)) was 50%, the plant injury at 500 g/ha ([6]; 500 g ai/ha, visual injury, 0 to 100 scale (0 no effect, 100 complete control), approx. 10 d, read-out: Plant response rating, Wheat) was 70% and the pest or weed control at 125 g/ha ([7]; 125 g ai/ha, visual rating about 10 d after treatment, read-out: Galium plant response rating (0 to 100 scale)) was 50%. For the same compound, the pest or weed control at 500 g/ha ([7]; 500 g ai/ha, visual injury, 0 to 100 scale (0 no effect, 100 complete control), approx. 10 d, read-out: Plant response rating, Galium) was 60%, the pest or weed control at 125 g/ha ([8]; 125 g ai/ha, visual rating about 10 d after treatment, read-out: Pigweed plant response rating (0 to 100 scale)) was 0% and the pest or weed control at 500 g/ha ([8]; 500 g ai/ha, visual injury, 0 to 100 scale (0 no effect, 100 complete control), approx. 10 d, read-out: Plant response rating, Pigweed) was 0%. For the same compound, the pest or weed control at 125 g/ha [9] was 20%, the pest or weed control at 500 g/ha ([10]; 500 g ai/ha, preemergence, 0 to 100 scale where 0 is no effect and 100 is complete control, read-out: Ragweed plant response rating) was 70% and the pest or weed control at 125 g/ha ([10]; Preemergence, 125 g ai/ha, 0 to 100 scale (0 no effect, 100 complete control), read-out: Plant response rating, Ragweed) was 0%. For the same compound, the pest or weed control at 500 g/ha (Kochia (Kochia scoparia) [11]; 500 g ai/ha, preemergence, 0 to 100 scale where 0 is no effect and 100 is complete control, read-out: Kochia plant response rating) was 90%, the pest or weed control at 125 g/ha (Kochia (Kochia scoparia) [11]; Preemergence, 125 g ai/ha, 0 to 100 scale (0 no effect, 100 complete control), read-out: Plant response rating, Kochia) was 80% and the pest or weed control at 500 g/ha ([12]; 500 g ai/ha, preemergence, 0 to 100 scale where 0 is no effect and 100 is complete control, read-out: Barnyardgrass plant response rating) was 90%. The pest or weed control at 125 g/ha ([12]; Preemergence, 125 g ai/ha, 0 to 100 scale (0 no effect, 100 complete control), read-out: Plant response rating, Barnyardgrass) was 90%, the pest or weed control at 500 g/ha ([13]; 500 g ai/ha, preemergence, 0 to 100 scale where 0 is no effect and 100 is complete control, read-out: Foxtail, Giant plant response rating) was 90% and the pest or weed control at 125 g/ha ([13]; Preemergence, 125 g ai/ha, 0 to 100 scale (0 no effect, 100 complete control), read-out: Plant response rating, Foxtail, Giant) was 90%. The pest or weed control at 500 g/ha ([14]; 500 g ai/ha, preemergence, 0 to 100 scale where 0 is no effect and 100 is complete control, read-out: Pigweed plant response rating) was 40% and the pest or weed control at 125 g/ha ([14]; Preemergence, 125 g ai/ha, 0 to 100 scale (0 no effect, 100 complete control), read-out: Plant response rating, Pigweed) was 0%.

From patent US12077503B2, “Substituted cyclic amides and their use as herbicides” (FMC CORPORATION, priority 2015, dated 2024)
